Structures can show the parent of a compound that is named as a salt.
Legend:
[1] = Uptake of [125I]iodothyronine derivatives by Xenopus laevis oocytes injected with Ntcp cRNA; settings: for uptake ratio at 1 h: oatp1, choline
Description: (§1) For capping, the m7G[5']ppp[5']G cap analog was used (Epicentre Technologies). cRNA was stored in water at -80 C at a concentration of 0.1 mg/ml.
(§2) Oocytes were prepared as described previously (9). After isolation, the oocytes were sorted on morphological criteria and defolliculated manually. […] The next day, oocytes were injected with 23 nl water containing 23 ng mRNA, 2.3 ng Ntcp cRNA or 2.3 ng oatp1 cRNA using the Nanoject system (Drummond Scientific, Broomall, PA). Injected and uninjected oocytes were maintained for 2-3 days at 18 C in modified Barth's solution.
(§3) Uptake assays were performed as described previously (9). […] After 1 h, incubation buffer was removed and the oocytes were washed four times with 2.5 ml ice-cold Na^+-containing incubation buffer supplemented with 0.1% BSA. Oocytes were transferred to new tubes and counted individually.

[2] = system: Na^+-independent organic anion transporting polypeptide (oatp1); test: Uptake of [125I]iodothyronine derivatives by Xenopus laevis oocytes injected with oatp1 cRNA; settings: oatp1 cRNA-injected oocytes; 1-2 nM ligand; Na^+ medium
Description: as §1, §2, §3

Row | uptake ratio at 1 h, 100 µM ([1]; xenopus oocytes, ntcp crna) | SMILES | uptake ratio at 1 h, 100 µM [1] | uptake ratio at 1 h ([1]; xenopus oocytes) | uptake ratio at 1 h, 100 µM ([1]; xenopus oocytes, oatp1 crna) | uptake higher than that of the other sulfates [2] [%]
1 |  | N[C@@H](Cc1ccc(Oc2ccc(O)c(I)c2)c(I)c1)C(=O)O [3,3'-T2, 3,3'-diiodothyronine] | 1.3 | 1.8 | 1.4 | 
2 |  | NC(Cc1cc(I)c(Oc2ccc(OS(=O)(=O)O)c(I)c2)c(I)c1)C(=O)O (stereo not shown) [T3S, T3 sulfate] |  |  |  | ~50
3 | 1.9 | N[C@@H](Cc1cc(I)c(Oc2cc(I)c(O)c(I)c2)c(I)c1)C(=O)O [T4, 3,3',5,5'-tetraiodothyronine] |  | 3.8 | 2.8 | 
4 |  | N[C@@H](Cc1ccc(Oc2cc(I)c(O)c(I)c2)c(I)c1)C(=O)O [rT3, 3,3',5'-triiodothyronine] | 1.8 | 8.5 | 6 | 

Reference: patent publication EP0982399B1, “Thyroid hormone transporters, agonists and antagonists thereof” (Stichting tot bevordering van de wetenschap der …, priority 1998, dated 2000)
